From patent US20230372382A1, “USE OF ADENOSINE DIPHOSPHATE RIBOSE FOR ADJUVANT THERAPY WITH RADIATION AND/OR ANTI-CANCER TREATMENT” (PearlsInMires Co., Ltd., priority 2021, published 2023)

Key:
[1] = test system: AsPC-1 cells; assay: Cell death by combination treatment of ADP-ribose and radiation (MTT); format: cell-based; details: AsPC-1, 2 μM ADP-ribose in combination with 2 Gy radiation, 24 hours, P<0.001; 2 Gy alone about 87.3%
Description: (§3) 3×10^3 Brain cancer (U-87MG), lung cancer (H1975), pancreatic cancer (Aspc-1), liver cancer (Hep G2), breast cancer (MDA-MB-231), colon cancer (HCT116), and kidney cancer (Caki-1) cells were cultured in a 96-well plate for 24 hours under conditions of 37° C. and 5% CO2, treated with ADP-ribose or 2 or 5 Gy radiation alone or in combination with ADP-ribose and 2 Gy radiation, and cultured for 24 hours under conditions of 37° C. and 5% CO2 again. Then, 10 μl of 3-(4,5-dimethylthiazol-2-yl)-2,5-diphenyltetrazolium bromide reagent was added to each well and reacted for 1 hour. After the reaction was completed, the reagent was removed, 200 μl of dimethyl sulfoxide was added to each well, and the absorbance was measured to compare the degree of cell death.
3×10^3 AsPC-1 cells were cultured in a 96-well plate for 24 hours under conditions of 37° C. and 5% CO2, treated with 2 μM of ADP-ribose and 2 or 5 Gy dose of radiation individually or in combination, and cultured for 24 hours under conditions of 37° C. and 5% CO2 again. Then, 10 μl of 3-(4,5-dimethylthiazol-2-yl)-2,5-diphenyltetrazolium bromide reagent was added to each well and reacted for 1 hour. After the reaction was completed, the reagent was removed, 200 μl of dimethyl sulfoxide was added to each well, and the absorbance was measured to confirm cell viability.

[2] = test system: Hep G2 cells; assay: as above; format: cell-based; details: Hep G2, 4 μM ADP-ribose in combination with 2 Gy radiation, 24 hours, P<0.001; 2 Gy alone about 82.3%
Description: as §3
3×10^3 Hep G2 cells were cultured in a 96-well plate for 24 hours under conditions of 37° C. and 5% CO2, treated with 4 μM of ADP-ribose and 2 or 5 Gy dose of radiation individually or in combination, and cultured for 24 hours under conditions of 37° C. and 5% CO2 again. Then, 10 μl of 3-(4,5-dimethylthiazol-2-yl)-2,5-diphenyltetrazolium bromide reagent was added to each well and reacted for 1 hour. After the reaction was completed, the reagent was removed, 200 μl of dimethyl sulfoxide was added to each well, and the absorbance was measured to confirm cell viability.

[3] = test system: SNU-1 cells; assay: Cancer cell death verification (MTT cell viability); format: cell-based; details: SNU-1, 32 μM ADP-ribose, 24 hours
Description: 3×10^3 SNU-1 or OVCAR-3 cells were cultured in a 96-well plate for 24 hours under conditions of 37° C. and 5% CO2, treated with ADP-ribose at concentrations of 32 μM, respectively, and cultured again for 24 hours under conditions of 37° C. and 5% CO2. Then, 10 μl of 3-(4,5-dimethylthiazol-2-yl)-2,5-diphenyltetrazolium bromide reagent was added to each well and reacted for 1 hour. After the reaction was completed, the reagent was removed, 200 μl of dimethyl sulfoxide was added to each well, and the absorbance was measured to confirm cell viability.

[4] = test system: H1975 cells; assay: as above; format: cell-based
Description: (§4) 3×10^3 Brain cancer (U-87MG), lung cancer (H1975), pancreatic cancer (Aspc-1), liver cancer (Hep G2), breast cancer (MDA-MB-231), colon cancer (HCT116), kidney cancer (Caki-1), gastric cancer (SNU-1) and ovarian cancer (OVCAR-3) cells were cultured in a 96-well plate under conditions of 37° C. and 5% CO2 for 24 hours, and then each cancer cell was treated with ADP-ribose at each concentration. After culturing for 24 hours under conditions of 37° C. and 5% CO2 again, 10 μl of 3-(4,5-dimethylthiazol-2-yl)-2,5-diphenyltetrazolium bromide reagent was added to each well and reacted for 1 hour. After the reaction was completed, the reagent was removed, 200 μl of dimethyl sulfoxide was added to each well, and the absorbance was measured to determine the concentration of half-lethality and maximum lethality compared to untreated cells.
3×10^3 H1975 cells were cultured in a 96-well plate for 24 hours under conditions of 37° C. and 5% CO2, treated with ADP-ribose at concentrations of 0.125, 0.25, 0.5, 1, 2, 4, 8, 16, and 32 μM, respectively, and cultured again for 24 hours under conditions of 37° C. and 5% CO2. Then, 10 μl of 3-(4,5-dimethylthiazol-2-yl)-2,5-diphenyltetrazolium bromide reagent was added to each well and reacted for 1 hour. After the reaction was completed, the reagent was removed, 200 μl of dimethyl sulfoxide was added to each well, and the absorbance was measured to confirm cell viability.

[5] = test system: AsPC-1 cells; assay: Transwell metastasis and invasion ability of cancer cells; format: cell-based; details: AsPC-1, 16 μM ADP-ribose
Description: (§1) Metastasis and invasion ability of cancer cells were analyzed by using a transwell having polycarbonate membrane filters with 8.0 μm pore size. The transwell was put into a 24-well plate. In each well, pancreatic cancer (Aspc-1) and breast cancer (MDA-MB-231) cells were seeded on the upper surface of the insert at a density of 3.5×10^5 cells per well, divided into the untreated group and ADP-ribose-treated groups, and cultured under conditions of 37° C. and 5% CO2 for 24 hours. After culturing, the transwell was carefully washed with sterile water and then placed in 100% methanol to fix the attached cells. After fixation, the cells were stained with hematoxylin and an eosin reagent to observe the cells, and the ratio of cells that permeated the upper surface of the insert and metastasized and invaded the lower surface, compared to the untreated group, was obtained.
(§2) Analysis was performed using a transwell having polycarbonate membrane filters with 8.0 μm pore size. […] After culturing, the transwell was carefully washed with sterile water and then placed in 100% methanol to fix the attached cells. After fixation, the cells were stained with hematoxylin and an eosin reagent to observe the cells.

[6] = test system: MDA-MB-231 cells; assay: as above; format: cell-based; details: MDA-MB-231, 32 μM ADP-ribose
Description: as §1, §2

[7] = test system: HCT116 cells; assay: Cancer cell death verification (MTT cell viability); format: cell-based
Description: as §4
3×10^3 HCT116 cells were cultured in a 96-well plate for 24 hours under conditions of 37° C. and 5% Ca2, treated with ADP-ribose at concentrations of 0.125, 0.25, 0.5, 1, 2, 4, 8, 16, and 32 μM, respectively, and cultured again for 24 hours under conditions of 37° C. and 5% CO2. Then, 10 μl of 3-(4,5-dimethylthiazol-2-yl)-2,5-diphenyltetrazolium bromide reagent was added to each well and reacted for 1 hour. After the reaction was completed, the reagent was removed, 200 μl of dimethyl sulfoxide was added to each well, and the absorbance was measured to confirm cell viability.

[8] = test system: Kidney cancer (Caki-1) cells; assay: Xenograft model, combination with radiation, tumor volume; format: in vivo, BALB/c nude mice; details: Caki-1 xenograft
Description: Brain cancer (U-87MG), pancreatic cancer (AsPC-1), breast cancer (MDA-MB-231), or kidney cancer (Caki-1) cells (1×10^7 cells) were inoculated into 5-week-old BALB/c nude mice on the back flank, respectively. Then, when tumors were grown to a volume of approximately 150 mm^3, the mice were divided into three groups: the control group (Control), 2 Gy dose of radiation alone, and a combination administration of 2 Gy dose of radiation+10 mg/kg of ADP-ribose (subcutaneous administration, 3 times a week). The irradiation was performed with an X-Rad 320 irradiator (Precision X-ray, North Branford, CT, USA), wherein the mice were placed by maintaining an appropriate distance from the radiation source for irradiation with a predetermined radiation dose. A lead shield was used to protect the body parts or organs from exposure to radiation, other than the cancerous part of the mouse. The irradiation was performed with a total of 2 Gy of radiation fractionated into two doses of 1 Gy each (for 2 days) at a dose rate of 300 kVp and 150 cGy/min using an X-ray beam filter composed of 12.5 mA and 2.0 mm Al. The tumor size was measured every 6 days using a digital caliper, and the results of changes in tumor volume were compared by the group.
Kidney cancer (Caki-1) cells (1×10^7) were inoculated into 5-week-old BALB/c nude mice on the back flank, and the mice were divided into three groups: the control group (Control), 2 Gy dose of radiation alone, and combination administration of 2 Gy dose radiation+20 mg/kg of ADP-ribose. When the tumors were grown to a volume of approximately 150 mm^3, 2 Gy dose of radiation was irradiated twice at 1 Gy each, and 20 mg/kg of ADP-ribose was injected subcutaneously 3 times a week. The tumor size was measured using a digital caliper, and the results of changes in tumor volume were compared by the group.

[9] = test system: MDA-MB-231 cells; assay: Cancer cell death verification (MTT cell viability); format: cell-based
[10] = test system: Pancreatic cancer (AsPC-1) cells; assay: Xenograft model, subcutaneous ADP-ribose, tumor volume; format: in vivo, BALB/c nude mice; details: AsPC-1 xenograft, 3 times a week, control about 2155.8
Description: Pancreatic cancer (AsPC-1) or kidney cancer (Caki-1) cells (1×10^7 cells) were inoculated into 5-week-old BALB/c nude mice on the back flank, and the mice were grown up to approximately 150 mm^3 of the tumor volume. Then, three concentrations of ADP-ribose were administered subcutaneously, intravenously, and orally 3 times a week. The tumor size was measured every 6 days using a digital caliper, and the changes in tumor volume were compared for each group.
Pancreatic cancer (AsPC-1) cells (1×10^7) were inoculated into 5-week-old BALB/c nude mice on the back flank, and the mice were divided into four groups: the control group (Control) and groups injected subcutaneously with 2, 20, and 40 mg/kg of ADP-ribose. When the tumors were grown to a volume of approximately 150 mm^3, each concentration of ADP-ribose was subcutaneously injected 3 times a week. The tumor size was measured using a digital caliper, and the results of changes in tumor volume were compared by the group.

[11] = ADP-ribose 20 mg/kg s.c. + 2 Gy radiation, P<0.001

Nc1ncnc2c1ncn2[C@@H]1O[C@H](COP(=O)(O)OP(=O)(O)OC[C@H]2O[C@@H](O)C(O)C2O)C(O)C1O (stereo partly shown) [ADP-ribose, adenosine diphosphate ribose]
survival rate of cancer cells [1]: about 8%
survival rate of cancer cells [2]: about 7.3%
cell death compared to the control group [3]: killed significantly
maximum lethal dose (concentration at which almost all cells were killed) ([4]; H1975, 24 hours, MTT): 32 µM
cancer cell growth under a microscope ([4]; H1975, ADP-ribose treated vs control, FIG. 3A): inhibited from growing and killed
IC50 ([4]; Homo sapiens, NCI-H1975, 24 h, read-out: half-lethal dose (concentration at which about half of the cells were killed)): ~2 µM
invasion and metastasis from upper to lower part of the transwell (photomicrograph) ([5]; 24 hours, FIG. 10A): significantly inhibited
metastasis and invasion ability, quantitatively measured, compared to the control group ([5]; P<0.001, FIG. 10B): significantly reduced
invasion and metastasis from upper to lower part of the transwell (photomicrograph) ([6]; 24 hours, FIG. 11A): significantly inhibited
metastasis and invasion ability, quantitatively measured, compared to the control group ([6]; P<0.001, FIG. 11B): significantly reduced
maximum lethal dose (concentration at which almost all cells were killed) ([7]; HCT116, 24 hours, MTT): 32 µM
cancer cell growth under a microscope ([7]; HCT116, ADP-ribose treated vs control, FIG. 7A): inhibited from growing and killed
IC50 ([7]; Homo sapiens, HCT-116, 24 h, read-out: half-lethal dose (concentration at which about half of the cells were killed)): ~8 µM
reduction of tumor volume compared to the control group [8, 11]: about 70%
reduction of tumor volume compared to the group treated with 2 Gy dose of radiation alone [8, 11]: about 68%
final tumor volume ([8]; ADP-ribose 20 mg/kg subcutaneous 3 times a week + 2 Gy radiation, control about 2620.5, 2 Gy alone about 2454.5): about 786.4 mm^3
IC50 ([9]; Homo sapiens, MDA-MB-231, 24 h, read-out: half-lethal dose (concentration at which about half of the cells were killed)): ~16 µM
maximum lethal dose (concentration at which almost all cells were killed) ([9]; MDA-MB-231, 24 hours, MTT): 32 µM
cancer cell growth under a microscope ([9]; MDA-MB-231, ADP-ribose treated vs control, FIG. 6A): inhibited from growing and killed
final tumor volume ([10]; 2 mg/kg subcutaneous): 1015.8 mm^3
final tumor volume ([10]; 20 mg/kg subcutaneous): 496.6 mm^3
final tumor volume ([10]; 40 mg/kg subcutaneous): 336.2 mm^3
